# Data: ChEMBL document CHEMBL3868595, “Plazomicin is effective in a non-human primate pneumonic plague model” (Bioorg Med Chem, 2016)
# Legend:
# [1] = tested on: Yersinia pestis; experiment: Antibacterial activity against Yersinia pestis Colorado 92 infected in African green monkey C2083 model assessed as bacterial burden in heart at 12.5 mg/kg, iv administered within 6 hrs post onset of sustained fever as 30 mins infusion for 5 days (reference value: 2.6 10^7CFU/g); assay type: functional, CO92
# [2] = tested on: Yersinia pestis; experiment: Antibacterial activity against Yersinia pestis Colorado 92 infected in African green monkey B6106 model assessed as bacterial burden in heart at 25 mg/kg, iv administered within 6 hrs post onset of sustained fever as 30 mins infusion for 5 days (reference value: 2.6 10^7CFU/g); assay type: functional, organism-based; details: CO92
# [3] = tested on: Yersinia pestis; experiment: Antibacterial activity against Yersinia pestis Colorado 92 infected in African green monkey B6127 model assessed as bacterial burden in tracheobronchial lymph nodes at 25 mg/kg, iv administered within 6 hrs post onset of sustained fever as 30 mins infusion for 10 days (reference value: 7.7 10^9CFU/g); assay type: functional, organism-based; details: CO92, Lymph node
# [4] = Volume of distribution at steady state in African green monkey blood at 35 mg/kg administered as iv infusion twice daily for 7 consecutive days measured on day 1 by LC-MS/MS analysis; assay type: ADME, organism-based; details: chlorocebus aethiops, read-out: Vdss
# [5] = Clearance in African green monkey blood at 25 mg/kg administered as iv infusion twice daily for 7 consecutive days measured on day 1 by LC-MS/MS analysis; assay type: ADME, organism-based; details: chlorocebus aethiops
# [6] = tested on: African green monkey; experiment: Toxicity in African green monkey 7653 model infected with Yersinia pestis Colorado 92 assessed as serum creatinine level at 25 mg/kg, iv administered within 6 hrs post onset of sustained fever as 30 mins infusion for 10 days (reference value: 0.6 mg/dl); assay type: organism-based; details: chlorocebus sabaeus, in vivo
# [7] = tested on: African green monkey; experiment: Toxicity in African green monkey 7337 model infected with Yersinia pestis Colorado 92 assessed as serum lactate dehydrogenase level at 25 mg/kg, iv administered within 6 hrs post onset of sustained fever as 30 mins infusion for 10 days (reference value: 310 IU/L); assay type: organism-based; details: chlorocebus sabaeus, in vivo
# [8] = tested on: Yersinia pestis; experiment: Antibacterial activity against Yersinia pestis Colorado 92 infected in African green monkey B6415 model assessed as bacterial burden in liver at 25 mg/kg, iv administered within 6 hrs post onset of sustained fever as 30 mins infusion for 5 days (reference value: 5.2 10^8CFU/g); assay type: functional, CO92
# [9] = tested on: Yersinia pestis; experiment: Antibacterial activity against Yersinia pestis Colorado 92 infected in African green monkey B6672 model assessed as bacterial burden in heart at 12.5 mg/kg, iv administered within 6 hrs post onset of sustained fever as 30 mins infusion for 5 days (reference value: 2.6 10^7CFU/g); assay type: functional, CO92
# [10] = tested on: Yersinia pestis; experiment: Antibacterial activity against Yersinia pestis Colorado 92 infected in African green monkey 8047 model assessed as bacterial burden in tracheobronchial lymph nodes at 6.25 mg/kg, iv administered within 6 hrs post onset of sustained fever as 30 mins infusion for 10 days (reference value: 7.7 10^9CFU/g); assay type: functional, CO92, Lymph node
# [11] = Toxicity in African green monkey B5994 model infected with Yersinia pestis Colorado 92 assessed as total white blood cell count at 25 mg/kg, iv administered within 6 hrs post onset of sustained fever as 30 mins infusion for 10 days (reference value: 8 10^3/microL); assay type: organism-based; details: chlorocebus aethiops, in vivo
# [12] = Volume of distribution at steady state in African green monkey blood at 25 mg/kg administered as iv infusion twice daily for 7 consecutive days measured on day 1 by LC-MS/MS analysis; assay type: ADME, organism-based; details: chlorocebus aethiops, read-out: Vdss
# [13] = tested on: African green monkey; experiment: Toxicity in African green monkey 8067 model infected with Yersinia pestis Colorado 92 assessed as serum lactate dehydrogenase level at 25 mg/kg, iv administered within 6 hrs post onset of sustained fever as 30 mins infusion for 10 days (reference value: 287 IU/L); assay type: organism-based; details: chlorocebus sabaeus, in vivo
# [14] = tested on: Yersinia pestis; experiment: Antibacterial activity against Yersinia pestis Colorado 92 infected in African green monkey B6469 model assessed as bacterial burden in kidney at 25 mg/kg, iv administered within 6 hrs post onset of sustained fever as 30 mins infusion for 5 days (reference value: 7.1 10^7CFU/g); assay type: functional, organism-based; details: CO92
# [15] = tested on: African green monkey; experiment: Toxicity in African green monkey B6428 model infected with Yersinia pestis Colorado 92 assessed as serum gamma glutamyl-transferase level at 25 mg/kg, iv administered within 6 hrs post onset of sustained fever as 30 mins infusion for 10 days (reference value: 31 IU/L); assay type: organism-based; details: chlorocebus sabaeus, in vivo
# [16] = tested on: Yersinia pestis; experiment: Antibacterial activity against Yersinia pestis Colorado 92 infected in African green monkey B6861 model assessed as bacterial burden in brain at 6.25 mg/kg, iv administered within 6 hrs post onset of sustained fever as 30 mins infusion for 5 days (reference value: 1.9 10^6CFU/g); assay type: functional, CO92
# [17] = tested on: Yersinia pestis; experiment: Antibacterial activity against Yersinia pestis Colorado 92 infected in African green monkey B6873 model assessed as bacterial burden in blood at 12.5 mg/kg, iv administered within 6 hrs post onset of sustained fever as 30 mins infusion for 5 days (reference value: 1.2 10^7CFU/ml); assay type: functional, organism-based; details: CO92
# [18] = tested on: Yersinia pestis; experiment: Antibacterial activity against Yersinia pestis Colorado 92 infected in African green monkey C2149 model assessed as bacterial burden in kidney at 6.25 mg/kg, iv administered within 6 hrs post onset of sustained fever as 30 mins infusion for 5 days (reference value: 7.1 10^7CFU/g); assay type: functional, CO92
# [19] = Toxicity in African green monkey B6428 model infected with Yersinia pestis Colorado 92 assessed as total white blood cell count at 25 mg/kg, iv administered within 6 hrs post onset of sustained fever as 30 mins infusion for 10 days (reference value: 6.2 10^3/microL); assay type: organism-based; details: chlorocebus aethiops, in vivo
# [20] = tested on: African green monkey; experiment: Toxicity in African green monkey B6140 model infected with Yersinia pestis Colorado 92 assessed as serum creatinine level at 25 mg/kg, iv administered within 6 hrs post onset of sustained fever as 30 mins infusion for 10 days (reference value: 0.8 mg/dl); assay type: organism-based; details: chlorocebus sabaeus, in vivo
# [21] = tested on: Yersinia pestis; experiment: Antibacterial activity against Yersinia pestis Colorado 92 infected in African green monkey C2149 model assessed as bacterial burden in tracheobronchial lymph nodes at 6.25 mg/kg, iv administered within 6 hrs post onset of sustained fever as 30 mins infusion for 5 days (reference value: 7.7 10^9CFU/g); assay type: functional, CO92, Lymph node
# [22] = tested on: Yersinia pestis; experiment: Antibacterial activity against Yersinia pestis Colorado 92 infected in African green monkey B6889 model assessed as bacterial burden in heart at 6.25 mg/kg, iv administered within 6 hrs post onset of sustained fever as 30 mins infusion for 5 days (reference value: 2.6 10^7CFU/g); assay type: functional, CO92
# [23] = Elimination half life in African green monkey blood at 35 mg/kg administered as iv infusion twice daily for 7 consecutive days measured on day 7 by LC-MS/MS analysis; assay type: ADME, organism-based; details: chlorocebus aethiops, read-out: beta t1/2 (converted)
# [24] = tested on: Yersinia pestis; experiment: Antibacterial activity against Yersinia pestis Colorado 92 infected in African green monkey B6436 model assessed as bacterial burden in spleen at 25 mg/kg, iv administered within 6 hrs post onset of sustained fever as 30 mins infusion for 5 days (reference value: 1.6 10^9CFU/g); assay type: functional, organism-based; details: CO92
# [25] = tested on: Yersinia pestis; experiment: Antibacterial activity against Yersinia pestis Colorado 92 infected in African green monkey C2149 model assessed as bacterial burden in spleen at 6.25 mg/kg, iv administered within 6 hrs post onset of sustained fever as 30 mins infusion for 5 days (reference value: 1.6 10^9CFU/g); assay type: functional, CO92
structure (smiles),measurement,setting,value
CN[C@@H]1[C@@H](O)[C@@H](O[C@@H]2[C@@H](O)[C@H](O[C@H]3OC(CNCCO)=CC[C@H]3N)[C@@H](N)C[C@H]2NC(=O)[C@@H](O)CCN)OC[C@]1(C)O [PLAZOMICIN],Activity,[1],1.5 ×10⁷ CFU/g
same,Activity,[2],Below limit of detection
same,Activity,[3],Below limit of detection
same,Vd,[4],0.26 L/kg
same,clearance,[5],2.17 mL/min/kg
same,Activity,[6],0.8 mg/dL
same,Activity,[7],469 IU/L
same,Activity,[8],2 ×10⁶ CFU/g
same,Activity,[9],29 CFU/g
same,Activity,[10],2 ×10⁹ CFU/g
same,Activity,[11],4.5 ×10³ /uL
same,Vd,[12],0.33 L/kg
same,Activity,[13],478 IU/L
same,Activity,[14],Below limit of detection
same,Activity,[15],27 IU/L
same,Activity,[16],12 CFU/g
same,Activity,[17],Below limit of detection
same,Activity,[18],16 CFU/g
same,Activity,[19],6 ×10³ /uL
same,Activity,[20],0.7 mg/dL
same,Activity,[21],1 ×10⁹ CFU/g
same,Activity,[22],1 ×10⁶ CFU/g
same,half-life,[23],1.7 h
same,Activity,[24],Below limit of detection
same,Activity,[25],30 CFU/g
